Consider three compounds from US9402831B2, “Combination therapy of HSP90 inhibitors with BRAF inhibitors” (Synta Pharmaceuticals Corp., priority 2011, dated 2016).

Experiment [1] relates to ACN. Description: Cell viability assay (Cell Titer-Glo), ACN. It is filed as cell-based. Particulars: Homo sapiens, neuroblastoma, BRAF V600E, read-out: Ganetespib IC50. How it is done: (§1) Cell viability was measured using the Cell Titer-Glo assay (Promega). In brief, cells were plated in 96-well plates in triplicate at optimal seeding density (determined empirically for each cell line) and incubated at 37° C., 5% CO2 atmosphere for 24 hr prior to the addition of drug or vehicle (0.3% DMSO) to the culture medium. At the end of the assay, Cell Titer-Glow was added to the wells per manufactures recommendation, shaken for two minutes and incubated for 10 minutes at room temperature. Luminescence (0.1 sec) was measured with a Victor II microplate reader (Perkin Elmer) and the resulting data were used to calculate cell viability, normalized to vehicle control.
On the technique in general: ATP-based viability assays read luminescence as a measure of living cells.

Experiment [2] deals with RKO. Description: Cell viability assay (Cell Titer-Glo), RKO. It is filed as cell-based. The conditions noted are these: Homo sapiens, carcinoma, BRAF V600E, read-out: Ganetespib IC50. The procedure:
as §1

Experiment [3] relates to IST-MEL1. The experiment in a line: Cell viability assay (Cell Titer-Glo), IST-MEL1. It is filed as cell-based. The conditions noted are these: Homo sapiens; IST-MEL1, malignant melanoma, BRAF V600E; read-out: Ganetespib IC50. The procedure: as §1
The subject of experiment [4] is LS-411N. The experiment in a line: Cell viability assay (Cell Titer-Glo), LS-411N. It is filed as cell-based. The conditions noted are these: Homo sapiens, carcinoma, BRAF V600E, read-out: Ganetespib IC50. The procedure: as §1
Experiment [5] deals with COLO-829. Description: Cell viability assay (Cell Titer-Glo), COLO-829. It is filed as cell-based. The conditions noted are these: Homo sapiens; COLO-829, malignant melanoma, BRAF V600E; read-out: Ganetespib IC50. The procedure:
as §1

Experiment [6] concerns HT-144. Description: Cell viability assay (Cell Titer-Glo), HT-144. Particulars: Homo sapiens; HT-144, malignant melanoma, BRAF V600E; read-out: Ganetespib IC50. It is filed as cell-based. How it is done: as §1
Experiment [7] relates to SK-HEP-1. The experiment in a line: Cell viability assay (Cell Titer-Glo), SK-HEP-1. It is filed as cell-based. Particulars: Homo sapiens, SK-HEP1; SK-HEP-1, carcinoma, BRAF V600E; read-out: Ganetespib IC50. The procedure: as §1
The test system of experiment [8] is A101D. Description: Cell viability assay (Cell Titer-Glo), A101D. It is filed as cell-based. Particulars: Homo sapiens, malignant melanoma, BRAF V600E, read-out: Ganetespib IC50. The procedure:
as §1

Experiment [9] has as its system SW982. Description: Cell viability assay (Cell Titer-Glo), SW982. It is filed as cell-based. Particulars: Homo sapiens; SW982, synovial sarcoma, BRAF V600E; read-out: Ganetespib IC50. How it is done:
as §1

Experiment [10] relates to K5. The experiment in a line: Cell viability assay (Cell Titer-Glo), K5. It is filed as cell-based. Particulars: Homo sapiens; K5, carcinoma, BRAF V600E; read-out: Ganetespib IC50. The procedure: as §1
In experiment [11] the test system is SH-4. The experiment in a line: Cell viability assay (Cell Titer-Glo), SH-4. It is filed as cell-based. The conditions noted are these: Homo sapiens; SH-4, malignant melanoma, BRAF V600E; read-out: Ganetespib IC50. How it is done:
as §1

In experiment [12] the test system is DBTRG-05MG. Description: Cell viability assay (Cell Titer-Glo), DBTRG-05MG. It is filed as cell-based. The conditions noted are these: Homo sapiens, glioma, BRAF V600E, read-out: Ganetespib IC50. How it is done:
as §1

Experiment [13] has as its system SK-MEL-5. Description: Cell viability assay (Cell Titer-Glo), SK-MEL-5. It is filed as cell-based. The conditions noted are these: Homo sapiens; SK-MEL-5, malignant melanoma, BRAF V600E; read-out: Ganetespib IC50. How it is done: as §1
The test system of experiment [14] is A375. The experiment in a line: Cell viability assay (Cell Titer-Glo), A375. It is filed as cell-based. Particulars: Homo sapiens, A-375; A375, malignant melanoma, BRAF V600E; read-out: Ganetespib IC50. The procedure: (§2) Human melanoma cell lines carrying the V600E BRAF mutation (A375, SK-MEL-28, RPMI-7951) and human prostate cancer cells (LNCaP, 22Rv1) were purchased from the American Type Culture Collection (Manassas, Va.) and grown following ATCC recommendations, in the presence of fetal bovine serum (10%), 2 mM L-glutamine and antibiotics (100 IU/ml penicillin and 100 μg/ml streptomycin) purchased from Sigma Aldrich. Cells were maintained at 37° C., 5% CO2 atmosphere.
as §1

The subject of experiment [15] is HTC-C3. Description: Cell viability assay (Cell Titer-Glo), HTC-C3. It is filed as cell-based. The conditions noted are these: Homo sapiens; HTC-C3, carcinoma, BRAF V600E; read-out: Ganetespib IC50. The procedure:
as §1

Experiment [16] concerns SW872. The experiment in a line: Cell viability assay (Cell Titer-Glo), SW872. It is filed as cell-based. Particulars: Homo sapiens; SW872, liposarcoma, BRAF V600E; read-out: Ganetespib IC50. How it is done: as §1
Experiment [17] concerns UACC-257. The experiment in a line: Cell viability assay (Cell Titer-Glo), UACC-257. It is filed as cell-based. The conditions noted are these: Homo sapiens; UACC-257, malignant melanoma, BRAF V600E; read-out: Ganetespib IC50. How it is done:
as §1

Experiment [18] has as its system RVH-421. Description: Cell viability assay (Cell Titer-Glo), RVH-421. It is filed as cell-based. Particulars: Homo sapiens; RVH-421, malignant melanoma, BRAF V600E; read-out: Ganetespib IC50. How it is done: as §1
For experiment [19], the system named is MZ7-mel. The experiment in a line: Cell viability assay (Cell Titer-Glo), MZ7-mel. It is filed as cell-based. The conditions noted are these: Homo sapiens, malignant melanoma, BRAF V600E, read-out: Ganetespib IC50. How it is done:
as §1

For experiment [20], the system named is MMAC-SF. The experiment in a line: Cell viability assay (Cell Titer-Glo), MMAC-SF. It is filed as cell-based. Particulars: Homo sapiens, malignant melanoma, BRAF V600E, read-out: Ganetespib IC50. How it is done: as §1
The subject of experiment [21] is human cancer cells harboring the V600E mutation in BRAF. The experiment in a line: Cell viability, panel of BRAF mutant cancer cell lines. It is filed as cell-based. Particulars: large panel of human cancer cells harboring BRAF V600E; read-out: IC50 across panel. The procedure:
as §1

The subject of experiment [22] is RPMI-7951 melanoma cells. Description: Cell viability assay, RPMI-7951 melanoma cells. It is filed as cell-based. The conditions noted are these: Homo sapiens; RPMI-7951 cells; read-out: IC90 cell killing. The procedure:
as §2, §1

The test system of experiment [23] is A375 melanoma cells. The experiment in a line: Western blotting, A375 cells. The conditions noted are these: A375, 24 hr, western blot. It is filed as cell-based, human. The procedure:
as §2
(§3) Cells, treated with compound for 24 hr, were lysed in RIPA buffer (CST, Danvers, Mass., USA) on ice and clarified by centrifugation. Equal amounts of proteins were resolved by SDS-PAGE and immunoblotted with indicated antibodies. The antigen-antibody complex was visualized and quantitated using an Odyssey system (LI-COR, Lincoln, Nebr., USA).
A general note: In western blotting, separated proteins are transferred to a membrane and probed.

Experiment [24] concerns SK-MEL-28 melanoma cells. Description: Western blotting, SK-MEL-28 cells. Particulars: SK-MEL-28, 24 hr, western blot, FIG. 1. It is filed as cell-based, human. The procedure: as §2, §3
Experiment [25] deals with RPMI-7951 melanoma cells. Description: Western blotting, RPMI-7951 cells. It is filed as cell-based, human. The conditions noted are these: western blot, FIG. 5. The procedure: as §2, §3
The test system of experiment [26] is B-raf V600E in melanoma cell line A375. The conditions noted are these: cited from earlier work.
The subject of experiment [27] is B-raf mutants in COS cells. The conditions noted are these: cited from earlier work.

Broadly, the IC50 is the concentration at which inhibition is half-maximal. A word on the IC90: it is the point of the concentration-response curve where the effect stands at 90%. As for `CC(C)c1cc(-c2nnc(O)n2-c2ccc3c(ccn3C)c2)c(O)cc1O` [Ganetespib, 3-(2,4-DIHYDROXY-5- ISOPROPYL-PHENYL)-4-(1- METHYL-INDOL-5-YL)-5- HYDROXY-[1,2,4]TRIAZOLE], the IC50 was 0.004 µM in [1]; 0.004 µM in [2]; 0.004 µM in experiment [3]; 0.005 µM in experiment [4]; 0.005 µM in [5]; 0.006 µM in [6]. The IC50 in experiment [7] came to 0.009 µM; in experiment [8] it was 0.009 µM; in experiment [9], 0.01 µM; in experiment [10] it was 0.011 µM; in [11] it was 0.012 µM; in experiment [12], 0.014 µM. Also, the IC50 in [13] was 0.018 µM; in experiment [14], 0.02 µM; in experiment [15], 0.021 µM; in [16], 0.022 µM; in experiment [17], 0.024 µM; in experiment [18], 0.026 µM. Besides, the IC50 was 0.026 µM in experiment [19], 0.031 µM in experiment [20] and 0.004 to 0.04 µM in experiment [21]. The 90% effect concentration (IC90) in [22] came to 0.01 µM. Further, the “MEK and ERK activity” value in experiment [23] (FIG. 1) is “loss of MEK and ERK activity”; in experiment [24], “loss of MEK and ERK activity”; in experiment [25] (RPMI-7951, 24 hr), “effectively inhibited”. Besides, the “destabilizing mutant BRAF” value in [23] (FIG. 1) and in experiment [24] was “fully capable of destabilizing mutant BRAF” each time. For the same compound, in experiment [23] (FIG. 2), the Cdc2 stability entry is listed as “destabilized Cdc2”. Also, the “PI3K and mTOR-mediated phosphorylation of AKT and 4EBP1” value in experiment [23] (FIG. 2) is given as “suppressed”. For the same compound, the “apoptosis as determined by PARP cleavage” value in experiment [23] (FIG. 2) is given as “resulting in apoptosis”. In addition, the “destabilization of BRAF dimerization partner CRAF” value in [23] (FIG. 3) is “able to destabilize”. For the same compound, the “potency in deactivating/dephosphorylating ERK versus PLX-4032 or AZD6244” value in [23] (FIG. 3) was “greater potency”. The AKT activity result in [25] (RPMI-7951, 24 hr) is recorded as “effectively inhibited”.
On to `C=CCNC1=C2C[C@@H](C)C[C@H](OC)[C@H](O)[C@@H](C)/C=C(\C)[C@H](OC(N)=O)[C@@H](OC)/C=C\C=C(/C)C(=O)NC(=CC1=O)C2=O` [Compound 17AAG], for which the “B-raf degradation rate versus wild type B-raf CHL cells” value in experiment [26] is “degraded more rapidly”. Moreover, the “degradation of B-raf mutants E586K and L597V” value in experiment [27] (cells treated with 17AAG) is “not sensitive to degradation”. The “degradation of B-raf mutants V600D, G469A, G469E, G596R, G466V, G594V” value in experiment [27] (transvected into COS cells, versus wild type B-raf) is given as “degraded more rapidly than wild type B-raf”.
`Cn1cnc2c(F)c(Nc3ccc(Br)cc3Cl)c(C(=O)NOCCO)cc21` [AZD6244, reference compound]: the “suppression of ERK phosphorylation” value in experiment [25] (RPMI-7951 (overexpress COT), 24 hr) is listed as “neither the MEK inhibitor AZD6244 nor the BRAF inhibitor PLX-4032 were capable of suppressing ERK phosphorylation”.
